Assay results reported in PubChem BioAssay AID1963850 (Molecular Pharmacology Branch, DTP, NCI, 2024).

Tested on: 192522-019-R-J2-PDC complex tumor spheroid viability
Assay: Anticancer human tumor 192522-019-R-J2-PDC patient-derived colon adenocarcinoma cell line growth inhibition [POLQ]
Conditions: for IC50: curve of first compound; for viability, T/C: stronger effect = lower value
Method in brief: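 Patient-derived tumour cells were co-cultured with HUVEC and mesenchymal stem cells as multicellular spheroids at 37 °C. They were treated with POLQ inhibitors (novobiocin, ART-558, RP6685) alone or combined with other agents. Top concentrations were at or near clinical Cmax (otherwise 10 microM; SN-38 at 1 microM), decreasing in half-log steps.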

[1] = second compound 0.0316 µM, first compound 0.0316 µM
[2] = second compound 0.0316 µM, first compound 0.1 µM
[3] = second compound 0.0316 µM, first compound 0.316 µM
[4] = second compound 0.0316 µM, first compound 1 µM
[5] = second compound 0.1 µM, first compound 0.0316 µM
[6] = second compound 0.1 µM, first compound 0.1 µM
[7] = second compound 0.1 µM, first compound 0.316 µM
[8] = second compound 0.1 µM, first compound 1 µM
[9] = second compound 0.316 µM, first compound 0.0316 µM
[10] = second compound 0.316 µM, first compound 0.1 µM
[11] = second compound 0.316 µM, first compound 0.316 µM
[12] = second compound 0.316 µM, first compound 1 µM
[13] = second compound 1 µM, first compound 0.0316 µM
[14] = second compound 1 µM, first compound 0.1 µM
[15] = second compound 1 µM, first compound 0.316 µM
[16] = second compound 1 µM, first compound 1 µM
[17] = second compound 3.16 µM, first compound 0.0316 µM
[18] = second compound 3.16 µM, first compound 0.1 µM
[19] = second compound 3.16 µM, first compound 0.316 µM
[20] = second compound 3.16 µM, first compound 1 µM
[21] = second compound 10 µM, first compound 0.0316 µM
[22] = second compound 10 µM, first compound 0.1 µM
[23] = second compound 10 µM, first compound 0.316 µM
[24] = second compound 10 µM, first compound 1 µM
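Note: spheroids exposed to drugs for seven days before reading.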
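Throughout, for viability, T/C: 100% = DMSO vehicle control viability in luminescence.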

**Q.** Which IC50 (second compound 0.0316 µM) does the source give for CCc1c2c(nc3ccc(O)cc13)-c1cc3c(c(=O)n1C2)COC(=O)[C@]3(O)CC + Nc1ccc(C#CCN(C(=O)Cc2ncc(C(F)(F)F)cc2C(F)(F)F)c2ccc(F)cc2)nn1 here?
**A.** 0.232 µM

**Q.** What about the IC50 (second compound 0.1 µM) of the same compound?
**A.** 0.176 µM

**Q.** And the IC50 (second compound 0.316 µM)?
**A.** 0.204 µM

**Q.** What about the IC50 (second compound 1 µM) of the same compound?
**A.** 0.129 µM

**Q.** And the IC50 (second compound 3.16 µM)?
**A.** 0.16 µM

**Q.** And the IC50 (second compound 10 µM)?
**A.** 0.111 µM

**Q.** What about the viability, T/C (second compound 0.0316 µM, first compound 0.00316 µM) of the same compound?
**A.** 92.1%

**Q.** And the viability, T/C (second compound 0.0316 µM, first compound 0.01 µM)?
**A.** 75.4%

**Q.** And the viability, T/C [1]?
**A.** 70.3%

**Q.** And the viability, T/C [2]?
**A.** 62.1%

**Q.** And the viability, T/C [3]?
**A.** 44.2%

**Q.** And the viability, T/C [4]?
**A.** 35.7%

**Q.** What about the viability, T/C (second compound 0.1 µM, first compound 0.00316 µM) of the same compound?
**A.** 94.8%

**Q.** And the viability, T/C (second compound 0.1 µM, first compound 0.01 µM)?
**A.** 77.6%

**Q.** What about the viability, T/C [5] of the same compound?
**A.** 78.6%

**Q.** What about the viability, T/C [6] of the same compound?
**A.** 60%

**Q.** And the viability, T/C [7]?
**A.** 38.1%

**Q.** And the viability, T/C [8]?
**A.** 31%

**Q.** And the viability, T/C (second compound 0.316 µM, first compound 0.00316 µM)?
**A.** 99%

**Q.** And the viability, T/C (second compound 0.316 µM, first compound 0.01 µM)?
**A.** 76.2%

**Q.** And the viability, T/C [9]?
**A.** 78.8%

**Q.** And the viability, T/C [10]?
**A.** 57%

**Q.** And the viability, T/C [11]?
**A.** 43.5%

**Q.** What about the viability, T/C [12] of the same compound?
**A.** 31.9%

**Q.** And the viability, T/C (second compound 1 µM, first compound 0.00316 µM)?
**A.** 103%

**Q.** And the viability, T/C (second compound 1 µM, first compound 0.01 µM)?
**A.** 71.5%

**Q.** And the viability, T/C [13]?
**A.** 69.8%

**Q.** What about the viability, T/C [14] of the same compound?
**A.** 57.6%

**Q.** And the viability, T/C [15]?
**A.** 36.4%

**Q.** What about the viability, T/C [16] of the same compound?
**A.** 31%

**Q.** And the viability, T/C (second compound 3.16 µM, first compound 0.00316 µM)?
**A.** 96.9%

**Q.** And the viability, T/C (second compound 3.16 µM, first compound 0.01 µM)?
**A.** 79.8%

**Q.** And the viability, T/C [17]?
**A.** 72.5%

**Q.** And the viability, T/C [18]?
**A.** 56%

**Q.** And the viability, T/C [19]?
**A.** 39.4%

**Q.** What about the viability, T/C [20] of the same compound?
**A.** 36.5%

**Q.** And the viability, T/C (second compound 10 µM, first compound 0.00316 µM)?
**A.** 94%

**Q.** What about the viability, T/C (second compound 10 µM, first compound 0.01 µM) of the same compound?
**A.** 76.7%

**Q.** What about the viability, T/C [21] of the same compound?
**A.** 71.5%

**Q.** And the viability, T/C [22]?
**A.** 50.6%

**Q.** And the viability, T/C [23]?
**A.** 36.2%

**Q.** And the viability, T/C [24]?
**A.** 34.4%

**Q.** For CC1COCCN1c1cc(C2(S(C)(=N)=O)CC2)nc(-c2ccnc3[nH]ccc23)n1 (centres undefined) + Nc1ccc(C#CCN(C(=O)Cc2ncc(C(F)(F)F)cc2C(F)(F)F)c2ccc(F)cc2)nn1, which IC50 (second compound 0.0316 µM) is on record?
**A.** 5.87 µM

**Q.** And the IC50 (second compound 0.1 µM)?
**A.** 6.81 µM

**Q.** And the IC50 (second compound 0.316 µM)?
**A.** 6 µM

**Q.** And the IC50 (second compound 1 µM)?
**A.** 7 µM

**Q.** And the IC50 (second compound 3.16 µM)?
**A.** 6.4 µM

**Q.** And the IC50 (second compound 10 µM)?
**A.** 7.13 µM

**Q.** And the viability, T/C [1]?
**A.** 101%

**Q.** And the viability, T/C [2]?
**A.** 90.6%

**Q.** And the viability, T/C [3]?
**A.** 102%

**Q.** And the viability, T/C [4]?
**A.** 93.7%

**Q.** What about the viability, T/C (second compound 0.0316 µM, first compound 3.16 µM) of the same compound?
**A.** 68%

**Q.** And the viability, T/C (second compound 0.0316 µM, first compound 10 µM)?
**A.** 34.5%

**Q.** What about the viability, T/C [5] of the same compound?
**A.** 106%

**Q.** What about the viability, T/C [6] of the same compound?
**A.** 98.6%

**Q.** And the viability, T/C [7]?
**A.** 102%

**Q.** What about the viability, T/C [8] of the same compound?
**A.** 100%

**Q.** What about the viability, T/C (second compound 0.1 µM, first compound 3.16 µM) of the same compound?
**A.** 69.6%

**Q.** What about the viability, T/C (second compound 0.1 µM, first compound 10 µM) of the same compound?
**A.** 40.1%

**Q.** And the viability, T/C [9]?
**A.** 114%

**Q.** And the viability, T/C [10]?
**A.** 100%

**Q.** And the viability, T/C [11]?
**A.** 99.4%

**Q.** And the viability, T/C [12]?
**A.** 90%

**Q.** And the viability, T/C (second compound 0.316 µM, first compound 3.16 µM)?
**A.** 67.9%

**Q.** What about the viability, T/C (second compound 0.316 µM, first compound 10 µM) of the same compound?
**A.** 35.5%

**Q.** What about the viability, T/C [13] of the same compound?
**A.** 103%

**Q.** And the viability, T/C [14]?
**A.** 108%

**Q.** And the viability, T/C [15]?
**A.** 100%

**Q.** What about the viability, T/C [16] of the same compound?
**A.** 96%

**Q.** What about the viability, T/C (second compound 1 µM, first compound 3.16 µM) of the same compound?
**A.** 77%

**Q.** And the viability, T/C (second compound 1 µM, first compound 10 µM)?
**A.** 37.8%

**Q.** And the viability, T/C [17]?
**A.** 99.2%

**Q.** What about the viability, T/C [18] of the same compound?
**A.** 100%

**Q.** What about the viability, T/C [19] of the same compound?
**A.** 101%

**Q.** What about the viability, T/C [20] of the same compound?
**A.** 100%

**Q.** What about the viability, T/C (second compound 3.16 µM, first compound 3.16 µM) of the same compound?
**A.** 68%

**Q.** What about the viability, T/C (second compound 3.16 µM, first compound 10 µM) of the same compound?
**A.** 38.5%

**Q.** And the viability, T/C [21]?
**A.** 102%

**Q.** And the viability, T/C [22]?
**A.** 101%

**Q.** And the viability, T/C [23]?
**A.** 102%

**Q.** And the viability, T/C [24]?
**A.** 105%

**Q.** And the viability, T/C (second compound 10 µM, first compound 3.16 µM)?
**A.** 72.7%

**Q.** And the viability, T/C (second compound 10 µM, first compound 10 µM)?
**A.** 40.5%
